The results in this text go back to patent publication US9643968B2, “Fused acridine derivative and pharmaceutical composition, preparation method and use thereof” (Peking University, priority 2014, dated 2017).

By IC50 is commonly meant the midpoint of a concentration-inhibition curve.

The subject of assay [1] is HCT116 (human colon cancer cell). The assay can be described thus: MTT in vitro cytotoxicity, HCT116. The format is cell-based. The following applies: HCT-116, 72 hr incubation. Here is the method: (§1) Materials and methods: MTT (3-[4,5-dimethylthiazol-2-yl]-diphenyl tetrazolium bromide) method was employed to determine the antiproliferative activity of all the compounds of the Examples and Contrasting Examples in vitro against selected cell lines, including HCT116 (human colon cancer cell), PC-3 (human prostate cancer), HepG2 (human hepatocellular carcinoma), SK-OV-3 (human ovarian adenocarcinoma), MCF-7 (human breast cancer), U87MG (human glioblastoma cell) cell lines.
(§2) Procedure: Human tumor cells of HCT116, PC-3, HepG2, SK-OV-3, MCF-7, and U87MG were in vitro cultured, and collected until the cells grow to the logarithmic phase. The cells were centrifuged for 5 minutes at 1000 rpm, and supernatant was discarded. Subsequently appropriate culture medium was added to suspend the precipitation, and the concentration of cells was adjusted to 3.5˜5.5×10^4/mL. the suspensions of cells were seeded in 96-well microplate at 100 μL per well, and incubated in incubator (37° C., 5% CO2) for 24 hr. The compound to test was added. For the control group, equivalent concentration of DMSO (final concentration 0.5%) was added. For each group, three copy wells were set. After incubated for 72 hr, 20 μL 5 mg/mL of MTT was added into each well, and placed at 37° C. for 3 hr. 150 μL of DMSO was added into each wells, and vibrated the shaker at 37° C. for 5 mins, then measured the absorbance (OD) value at 492 nm/620 nm. The IC50 values were calculated using Prism 5.0 software.

The subject of assay [2] is PC-3 (human prostate cancer). Nature of the assay: MTT in vitro cytotoxicity, PC-3. Type of assay: cell-based. The note with it: 72 hr incubation, read-out: IC50 PC3. Here is the method:
as §1, §2

Assay [3] deals with U87MG (human glioblastoma cell). The assay can be described thus: MTT in vitro cytotoxicity, U87MG. The format is cell-based. The note with it: U-87 MG, 72 hr incubation. As for the experimental part: as §1, §2
Assay [4] relates to HepG2 (human hepatocellular carcinoma). Nature of the assay: MTT in vitro cytotoxicity, HepG2. The format is cell-based. The note with it: 72 hr incubation. Here is the method: as §1, §2
For assay [5], the system named is tumor cells (U87MG). Nature of the assay: Assay for inhibiting cancer cell clone formation (soft agar). The format is cell-based, human. The note with it: concentration range from 0.020 to 0.090 μM, 10-14 days. As for the experimental part: Materials and methods: The tested tumor cells (U87MG) in the logarithmic phase were digested with 0.25% trypsin then percussed gently to the single cell state, and counted the live cells. The cells density was adjusted to 1×10^6[…] with DMEM containing 20% fetal bovine serum, and then diluted gradiently according to the experiment requirement.
Two concentrations (1.2% and 0.7%) of low melting point agarose fluid were prepared with distilled water respectively. A mixture of 1.2% agarose fluid and 2×DMEM medium (contains 2× antibiotics and 20% calf serum) was prepared in 1:1 ratio, then transferred (3 mL) into 6 cm diameter flat dishes, cooled to solidification to furnish the bottom agar which was stored in a CO2 incubator. The cell suspension (0.2 mL) was added to a mixture of 0.7% agarose and 2×DMEM medium which was prepared in 1:1 ratio in sterile tubes, and thoroughly mixed before injection to the precoated dishes to form the double layer agar. After the upper agar being solidified, the dishes were incubated in 37° C. and 5% CO2 for 10-14 days, each experiment was performed in 3-6 times.
The number of clones was counted under an inverted microscope. The clone formation rate was calculated.

In assay [6] the test system is SK-OV-3 (human ovarian adenocarcinoma). Nature of the assay: MTT in vitro cytotoxicity, SK-OV-3. The format is cell-based. The note with it: 72 hr incubation. As for the experimental part: as §1, §2

Turning to `Cc1ccc2c3c(c4ccccc4nc13)C(=O)N2CCN(C)C` [Compound 5e, 2-(2-(dimethylamino)ethyl)-5-methylpyrrolo[2,3,4-kl]-acridin-1-(2H)-one], the IC50 in assay [1] stood at 767 nM; in assay [2], 1660 nM; in assay [3], 959 nM; in assay [4], 1280 nM. Also, the “inhibition of glioma cell clone formation” value (shortened to “inhibition”) in assay [5] is given as “significantly inhibited”.

For `O=C1c2c3ccccc3nc3cccc(c23)N1c1ccccc1` [Compound 6b, 2-phenylpyrrolo[2,3,4-kl]acridin-1-(2H)-one, reference compound], the IC50 in assay [1], in assay [2], in assay [3], in assay [4] and in assay [6] was over 50000 nM throughout.

For the compound `CN(C)CCCN1C(=O)c2c3cccc(F)c3nc3cccc1c23` [Compound 3d, 2-(3-(dimethylamino)propyl)-7-fluoropyrrolo[2,3,4-kl]acridin-1-(2H)-one], the IC50 came to 1490 nM in assay [1], 4990 nM in assay [2], 2360 nM in assay [3] and 2100 nM in assay [4].

For `Cc1ccc2nc3c(C)ccc4c3c(c2c1)C(=O)N4CCN(C)C` [Compound 5a, 2-(2-(dimethylamino)ethyl)-5,9-dimethylpyrrolo[2,3,4-kl]-acridin-1-(2H)-one], the IC50 in assay [1] came to 1060 nM; in assay [2], 2900 nM; in assay [3], 1480 nM; in assay [4], 1940 nM. For the same compound, in assay [5], the “inhibition” value is given as “significantly inhibited”.

Consider `COc1ccc2nc3cccc4c3c(c2c1)C(=O)N4CCN1CCCCC1` [Compound 4c, 9-methoxy-2-(2-(piperidin-1-yl)ethyl)pyrrolo[2,3,4-kl]acridin-1-(2H)-one], for which the IC50 was found to be 284 nM in assay [1], 1400 nM in assay [2], 497 nM in assay [3] and 1500 nM in assay [4].

As to `COc1ccc2nc3c(C)ccc4c3c(c2c1)C(=O)N4CCN(C)C` [Compound 5c, 2-(2-(dimethylamino)ethyl)-9-methoxy-5-methylpyrrolo[2,3,4-kl]-acridin-1-(2H)-one], the IC50 in assay [1] turned out to be 165 nM; in assay [2], 689 nM; in assay [3], 269 nM; in assay [4], 232 nM.

Consider `CN(C)CCN1C(=O)c2c3cccc(F)c3nc3cccc1c23` [Compound 2d, 2-(2-(dimethylamino)ethyl)-7-fluoropyrrolo[2,3,4-kl]acridin-1-(2H)-one], for which the IC50 worked out at 951 nM in assay [1], 1850 nM in assay [2], 1700 nM in assay [3] and 1410 nM in assay [4]. Moreover, the “inhibition” value in assay [5] is given as “significantly inhibited”.

For `CN(C)CCCN1C(=O)c2c3cc(Cl)ccc3nc3cccc1c23.O=C(O)/C=C/C(=O)O` [Compound 3b′, 9-chloro-2-(3-(dimethylamino)propyl)pyrrolo[2,3,4-kl]acridin-1-(2H)-one fumarate], the “inhibition” value in assay [5] is on record as “significantly inhibited”.

With `O=C1c2c3ccccc3nc3cccc(c23)N1CCCN1CCOCC1` [Compound 1b, 2-(3-morpholinopropyl)pyrrolo[2,3,4-kl]acridin-1-(2H)-one], the IC50 worked out at 1870 nM in assay [1]; 3010 nM in assay [2]; 1780 nM in assay [3]; 2780 nM in assay [4]; 8430 nM in assay [6].

As to `CN(C)CCN1C(=O)c2c3cc(Cl)ccc3nc3cccc1c23` [Compound 2b, 9-chloro-2-(2-(dimethylamino)ethyl)pyrrolo[2,3,4-kl]acridin-1-(2H)-one], the IC50 in assay [1] amounted to 859 nM; in assay [2] it was 1220 nM; in assay [3], 1450 nM; in assay [4], 1080 nM. Besides, the “inhibition” value in assay [5] is on record as “significantly inhibited”.

As for `O=C1c2c3cccc(F)c3nc3cccc(c23)N1CCN1CCCCC1` [Compound 4d, 7-fluoro-2-(2-(piperidin-1-yl)ethyl)pyrrolo[2,3,4-kl]acridin-1-(2H)-one], the IC50 in assay [1] came to 1210 nM; in assay [2] it was 4700 nM; in assay [3], 1780 nM; in assay [4] it was 3580 nM.

With `Cc1ccc2c3c(c4cccc(F)c4nc13)C(=O)N2CCN(C)C` [Compound 5d, 2-(2-(dimethylamino)ethyl)-7-fluoro-5-methylpyrrolo[2,3,4-kl]-acridin-1-(2H)-one], the IC50 in assay [1] worked out at 1000 nM; in assay [2] it was 2510 nM; in assay [3], 1420 nM; in assay [4], 1720 nM. In addition, the “inhibition” value in assay [5] is reported as “significantly inhibited”.

For `CCCCN1C(=O)c2c3ccccc3nc3cccc1c23` [Compound 6a, 2-butylpyrrolo[2,3,4-kl]acridin-1-(2H)-one, reference compound], the IC50 in assay [1], in assay [2], in assay [3], in assay [4] and in assay [6] was over 50000 nM each time.

Consider `Cc1ccc2nc3cccc4c3c(c2c1)C(=O)N4CCCN(C)C` [Compound 3a, 2-(3-(dimethylamino)propyl)-9-methylpyrrolo[2,3,4-kl]acridin-1-(2H)-one], for which the IC50 in assay [1] is 1380 nM; in assay [2], 8210 nM; in assay [3], 2190 nM; in assay [4], 2850 nM.

As to `Cc1ccc2nc3cccc4c3c(c2c1)C(=O)N4CCN1CCCCC1` [Compound 4a, 9-methyl-2-(2-(piperidin-1-yl)ethyl)pyrrolo[2,3,4-kl]acridin-1-(2H)-one], the IC50 was found to be 1420 nM in assay [1], 4130 nM in assay [2], 1330 nM in assay [3] and 2570 nM in assay [4].

For `Cc1ccc2nc3cccc4c3c(c2c1)C(=O)N4CCN(C)C` [Compound 2a, 2-(2-(dimethylamino)ethyl)-9-methylpyrrolo[2,3,4-kl]acridin-1-(2H)-one], the concentration for half-maximal inhibition (IC50) came to 1050 nM in assay [1], 3520 nM in assay [2], 2050 nM in assay [3] and 2820 nM in assay [4].

Take `O=C1c2c3ccccc3nc3cccc(c23)N1CCN1CCCC1` [Compound 1g, 2-(2-(pyrrolidin-1-yl)ethyl)pyrrolo[2,3,4-kl]acridin-1-(2H)-one]: the IC50 stood at 946 nM in assay [1], 3990 nM in assay [2], 2160 nM in assay [4] and 6520 nM in assay [6].

For the compound `CN(C)CCCN1C(=O)c2c3cc(Cl)ccc3nc3cccc1c23` [Compound 3b, 9-chloro-2-(3-(dimethylamino)propyl)pyrrolo[2,3,4-kl]acridin-1-(2H)-one], the IC50 is 1320 nM in assay [1], 2330 nM in assay [2], 1580 nM in assay [3] and 1470 nM in assay [4].

`Cc1ccc2c3c(c4cc(Cl)ccc4nc13)C(=O)N2CCN(C)C` [Compound 5b, 9-chloro-2-(2-(dimethylamino)ethyl)-5-methylpyrrolo[2,3,4-kl]-acridin-1-(2H)-one]: the IC50 in assay [1] worked out at 930 nM; in assay [2] it was 2240 nM; in assay [3], 1270 nM; in assay [4] it was 1170 nM. Moreover, the “inhibition” value in assay [5] is recorded as “significantly inhibited”.

For `COc1ccc2nc3cccc4c3c(c2c1)C(=O)N4CCCN(C)C` [Compound 3c, 2-(3-(dimethylamino)propyl)-9-methoxypyrrolo[2,3,4-kl]acridin-1-(2H)-one], the IC50 in assay [1] was determined as 1110 nM; in assay [2], 3470 nM; in assay [3], 1850 nM; in assay [4], 1830 nM.

As for `O=C1c2c3cc(Cl)ccc3nc3cccc(c23)N1CCN1CCCCC1` [Compound 4b, 9-chloro-2-(2-(piperidin-1-yl)ethyl)pyrrolo[2,3,4-kl]acridin-1-(2H)-one], the IC50 in assay [1] stood at 1380 nM; in assay [2], 2880 nM; in assay [3], 1890 nM; in assay [4] it was 2250 nM.

For `CN(C)CCN1C(=O)c2c3ccccc3nc3c([N+](=O)[O-])ccc1c23` [Compound 2e], the IC50 in assay [1] turned out to be 1340 nM; in assay [2], 998 nM; in assay [3] it was 1740 nM; in assay [4], 1860 nM.
